Measured values published in patent EP3906926A1, “PROLINE HYDROXYLASE INHIBITORS FOR USE IN THE SKELETAL MUSCLE REGENERATION” (Policlinico San Donato S.p.A.- Istituto di Ricovero e Cura …, priority 2020, dated 2021).

How the values were obtained:
PHD2 = assay: qPCR of HIF-1α target gene PHD2; type: cell-based, murine; conditions: IOX2 or FG-4592 treatment, vs untreated controls
Description: (§1) Total RNA was isolated using ReliaPrep™ RNA Miniprep Systems (Promega), and reverse transcribed to cDNA using the iScript cDNA synthesis kit (BioRad), according to the Manufacturer's instructions. Real-Time Quantitative PCR was performed on 10 ng of cDNA template, 0.2 µM primers, and GoTaq® qPCR Master Mix (Promega) in 20 µl final volume using a StepOnePlus® Real-Time PCR System (Applied Biosystem). […] RPL13 was used as the housekeeping gene. The amplification program consisted in an initial denaturation at 95°C for 3 minutes, followed by 40 cycles of 5 seconds each at 95°C and 30 seconds at 57°C; WNT7a was amplified at 53°C. Relative quantification of target genes was performed in triplicate and calculated by the equation 2^-ΔΔCt.
as §1, with “ReliaPrepTM” for “ReliaPrep™”, “2-ΔΔCt.” for “2^-ΔΔCt.”

MyoD [1] = assay: Western blot of MyoD nuclear localization; type: cell-based, murine; conditions: IOX2 or FG-4592 for 24 hours
Description: (§2) For nuclei separation, 5 x 10^6 cells were collected after enzymatic digestion with trypsin (Merck), centrifuged at the maximum speed, resuspended in 400 µl of Buffer A (10 mM KCl, 0.1 mM EDTA, 1 mM DTT, 10 mM Hepes, pH 7.9), containing protease and phosphatase inhibitors cocktail (Merck), and incubated on ice for 20 minutes. Then, 10% NP40 was added to the cell suspension, mixed for 40 seconds, and centrifuged 40 seconds at the maximum speed. After centrifugation, the pellet was resuspended in 80 µl of Buffer C (0.4M NaCl, 1 mM EDTA, 1 mM DTT, 20 mM Hepes, pH 7.9), containing a protease and phosphatase inhibitors cocktail, and then mixed for 30 minutes at 4°C at the maximum speed. Finally, the nuclear suspension was centrifuged for 5 minutes at 4°C at the maximum speed, collected and transferred in a new tube. The total protein content was determined with the BCA Protein Assay Kit (Pierce), according to the manufacturer's instructions.
Proteins were denaturated by boiling for 10 minutes in sample buffer (0.6 g/100 mL Tris, 2 g/100 mL SDS, 10% glycerol, 1% 2-mercaptoethanol, pH 6.8) and loaded into 10% SDS-PAGE gel, then transferred onto a nitrocellulose membrane (Trans-blot, Bio-Rad Laboratories) by electroblotting. Nitrocellulose membranes were incubated with a blocking solution containing 5% (w/v) non-fat dry milk or 5% (w/v) BSA (Merck) in Tris-buffer saline with 0.1% Tween® 20 (TBS-T) for 1 hour. […] Membranes were washed three times for 10 minutes with TBS-T, and then incubated with the appropriate anti-mouse, anti-rabbit, or anti-goat HRP-conjugated secondary antibodies (Dako, Agilent Technologies), 1:2000 dilution, for 1 hour at room temperature. After three washes for 10 minutes with TBS-T, the immunoreactive bands were visualized using the enhanced chemiluminescence detection kit reagents (ECL Advance, GeHealthcare), according to the manufacturer's instructions.
as §2, with “For total proteins extraction, 7.5 x 10^4 cells were seeded and harvested at 7th days of skeletal muscle differentiation, as previously described. Cells were collected after enzymatic digestion with trypsin (Merck), lysed by sonication and centrifuged at 800 xg for 10 minutes. Supernatant was used to determine total protein content with the BCA Protein Assay Kit (Pierce), according to the manufacturer's instructions. For” for “For”, “(0.4 M” for “(0.4M”

Myogenin = assay: qPCR of Myogenin during differentiation; type: cell-based, murine; conditions: day 3 of differentiation, IOX2 or FG-4592 pre-treated myoblasts
Description: as §1
as §1, with “ReliaPrepTM” for “ReliaPrep™”, “2-ΔΔCt.” for “2^-ΔΔCt.”

MyoD [2] = assay: Western blot of MyoD nuclear localization in WNT7a-KO versus wild type myoblasts; type: cell-based, murine; conditions: WNT7a-KO vs wild type cells, after 24 h inhibitor pre-treatment
Description: as §2
Proteins were denaturated by boiling for 10 minutes in sample buffer (0.6 g/100 mL Tris, 2 g/100 mL SDS, 10% glycerol, 1% 2-mercaptoethanol, pH 6.8) and loaded into 10% SDS-PAGE gel, then transferred onto a nitrocellulose membrane (Trans-blot, Bio-Rad Laboratories) by electroblotting. […]
Therefore, WNT7a silencing was conducted by Crispr/Cas9 genome editing in C2C12 murine myoblasts and the effects on myogenesis were evaluated.

C2C12 murine myoblasts = assay: CellTox Cytotoxicity Assay; conditions: at IC50 concentrations (50 µM IOX2, 40 µM FG-4592), 24 hours, vs untreated controls
Description: To assess PHDs inhibitors cytotoxicity, 5 x 10^3 C2C12 murine myoblasts were seeded in a 96-well plate.

PHDs = assay: ODD-luciferase reporter assay (Dual-Glo) for PHDs inhibition; conditions: C2C12 myoblasts transfected with ODD-luciferase-pcDNA3; 24 hours at 10, 25, 50, 100 µM, normoxic conditions; linear regression
Description: The IC50 was calculated using a Dual-Glo® Luciferase Assay System kit (Promega) that allows a high-throughput analysis of mammalian cells containing the Firefly (Luciferase-pcDNA3, ODD-Luciferase-pcDNA3) and Renilla (pRL-CMV) luciferase reporters. Briefly, 5 x 10^3 cells per well were seeded in a 96-well plate, and then transfected for 24 hours with a Luciferase-pcDNA3 or an ODD-Luciferase-pcDNA3 (80 ng), containing the firefly gene reporter. A co-transfection with pRL-CMV (8 ng), containing the renilla gene reporter, was performed as an internal control, according to the ViaFect Transfection Reagent® protocol (Promega). After transfection, cells were treated with 10, 25, 50, and 100 µM IOX2 or FG-4592 (R oxadustat) for 24 hours, and then an equal volume of Dual-Glo® Luciferase Reagent was added to each well, incubated at room temperature for 30 minutes, and then analyzed with a Varioskan™ LUX Multimode Microplate Reader (ThermoFisher Scientific). Then, an equal volume of Dual-Glo® Stop & Glo® Reagent was added to each well in order to quench the luminescence from the firefly reaction and to provide the substrate for the renilla luciferase. The mixture was incubated for 30 minutes before analysis. The IC50 values were calculated by linear regression.
To this purpose, the IC50 of both compounds was determined by transiently co-transfecting C2C12 myoblasts with the ODD-luciferase-pcDNA3 plasmid, containing the Oxygen Dependent Domain (ODD) of HIF-1α, and with the pRL-CMV plasmid, as the internal control (Figure 4, panel A). Then, transfected cells were treated for 24 hours with IOX2 or FG-4592 at different concentrations (10, 25, 50, and 100 µM) under normoxic conditions, and the emitted luminescence was collated to untreated controls.
The EC50 was calculated using a Dual-Glo® Luciferase Assay System kit (Promega) that allows a high-throughput analysis of mammalian cells containing the Firefly (Luciferase-pcDNA3, ODD-Luciferase-pcDNA3) and Renilla (pRL-CMV) luciferase reporters. Briefly, 5 x 10^3 cells per well were seeded in a 96-well plate, and then transfected for 24 hours with a Luciferase-pcDNA3 or an ODD-Luciferase-pcDNA3 (80 ng), containing the firefly gene reporter. A co-transfection with pRL-CMV (8 ng), containing the renilla gene reporter, was performed as an internal control, according to the ViaFect Transfection Reagent® protocol (Promega). […] Then, an equal volume of Dual-Glo® Stop & Glo® Reagent was added to each well in order to quench the luminescence from the firefly reaction and to provide the substrate for the renilla luciferase. The mixture was incubated for 30 minutes before analysis. The EC50 values were calculated by linear regression.
The EC50 of each compound was determined by transiently co-transfecting C2C12 myoblasts with the ODD-luciferase-pcDNA3 plasmid, containing the Oxygen Dependent Domain (ODD) of HIF-1α, and with the pRL-CMV plasmid, as the internal control (Figure 12, panel A).

| SMILES | increase in the expression of PHD2 (PHD2) | increase of the nuclear localization of MyoD (MyoD [1]) | increase of Myogenin (Myogenin) | decrease of MyoD nuclear localization (MyoD [2]) | Cell toxicity (C2C12 murine myoblasts) | IC50 (PHDs) |
| --- | --- | --- | --- | --- | --- | --- |
| Cc1nc(C(=O)NCC(=O)O)c(O)c2ccc(Oc3ccccc3)cc12 [FG-4592, Roxadustat] | 4.8 fold | 1.5 fold | 1.4 fold | 42% | no significant changes | 40 µM |
| O=C(O)CNC(=O)c1c(O)c2ccccc2n(Cc2ccccc2)c1=O [IOX2] | 4.4 fold | 1.6 fold | 2.0 fold | no significant changes | no significant changes | 50 µM |
